According to PubChem BioAssay AID2060613 (Molecular Pharmacology Branch, DTP, NCI, 2025):
“And” between values parts separate entries of the source, which are not always exact repeats. Equal entries are not always repeated. Each block holds one compound with its values, some of them ahead of it.

Test system: 233499-124-R-J3-PDC complex spheroid viability
Assay: Anticancer human tumor 233499-124-R-J3-PDC patient-derived colon adenocarcinoma cell line growth inhibition [CLK]
Conditions: for viability, T/C: stronger effect = lower value
How it was run: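 Patient-derived tumor cells grown as complex spheroids with HUVEC endothelial cells and mesenchymal stem cells, treated with drug combinations. Concentrations descend in half-log steps from near clinical Cmax, or from 10 microM if Cmax unknown.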

[1] = curve of first compound, second compound 0.0316 µM
[2] = curve of first compound, second compound 0.1 µM
[3] = curve of first compound, second compound 0.316 µM
[4] = curve of first compound, second compound 1 µM
[5] = curve of first compound, second compound 3.16 µM
[6] = curve of first compound, second compound 10 µM
[7] = second compound 0.0316 µM, first compound 0.00949 µM
[8] = second compound 0.0316 µM, first compound 0.03 µM
[9] = second compound 0.0316 µM, first compound 0.0949 µM
[10] = second compound 0.0316 µM, first compound 0.3 µM
[11] = second compound 0.1 µM, first compound 0.00949 µM
[12] = second compound 0.1 µM, first compound 0.03 µM
[13] = second compound 0.1 µM, first compound 0.0949 µM
[14] = second compound 0.1 µM, first compound 0.3 µM
[15] = second compound 0.316 µM, first compound 0.00949 µM
[16] = second compound 0.316 µM, first compound 0.03 µM
[17] = second compound 0.316 µM, first compound 0.0949 µM
[18] = second compound 0.316 µM, first compound 0.3 µM
[19] = second compound 1 µM, first compound 0.00949 µM
[20] = second compound 1 µM, first compound 0.03 µM
[21] = second compound 1 µM, first compound 0.0949 µM
[22] = second compound 1 µM, first compound 0.3 µM
[23] = second compound 3.16 µM, first compound 0.00949 µM
[24] = second compound 3.16 µM, first compound 0.03 µM
[25] = second compound 3.16 µM, first compound 0.0949 µM
[26] = second compound 3.16 µM, first compound 0.3 µM
[27] = second compound 10 µM, first compound 0.00949 µM
[28] = second compound 10 µM, first compound 0.03 µM
[29] = second compound 10 µM, first compound 0.0949 µM
[30] = second compound 10 µM, first compound 0.3 µM
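Further: spheroids exposed to the drug combinations for seven days.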
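Wherever viability, T/C is given: percent viability relative to DMSO vehicle control wells taken as 100%.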

- IC50 [1]: 618 nM
- IC50 [2]: 263 nM
- IC50 [3]: 197 nM
- IC50 [4]: 133 nM
- IC50 [5]: 157 nM
- IC50 [6]: 161 nM
SMILES: NC(=O)C(=Cn1cnc(-c2cc(C(F)(F)F)cc(C(F)(F)F)c2)n1)c1cncnc1 + CNC(=O)c1ccc(Nc2nc(OC3CCCC3)c3c(-c4ccc5nc(C)oc5c4)c[nH]c3n2)c(OC)c1
- viability, T/C [7]: 85.5%
- viability, T/C [8]: 85.5%
- viability, T/C [9]: 79.8%
- viability, T/C [10]: 78.2%
- viability, T/C (second compound 0.0316 µM, first compound 0.949 µM): 33.4%
- viability, T/C (second compound 0.0316 µM, first compound 3 µM): 15.5%
- viability, T/C [11]: 85.3%
- viability, T/C [12]: 80.8%
- viability, T/C [13]: 72.8%
- viability, T/C [14]: 34.5%
- viability, T/C (second compound 0.1 µM, first compound 0.949 µM): 44.1%
- viability, T/C (second compound 0.1 µM, first compound 3 µM): 15.7%
- viability, T/C [15]: 74.6%
- viability, T/C [16]: 90.3%
- viability, T/C [17]: 81.5%
- viability, T/C [18]: 31.8%
- viability, T/C (second compound 0.316 µM, first compound 0.949 µM): 35.3%
- viability, T/C (second compound 0.316 µM, first compound 3 µM): 12%
- viability, T/C [19]: 75.4%
- viability, T/C [20]: 75.1%
- viability, T/C [21]: 51.2%
- viability, T/C [22]: 39.9%
- viability, T/C (second compound 1 µM, first compound 0.949 µM): 11.4%
- viability, T/C (second compound 1 µM, first compound 3 µM): 10.6%
- viability, T/C [23]: 68.9%
- viability, T/C [24]: 65%
- viability, T/C [25]: 71.1%
- viability, T/C [26]: 26.3%
- viability, T/C (second compound 3.16 µM, first compound 0.949 µM): 9.48%
- viability, T/C (second compound 3.16 µM, first compound 3 µM): 4.46%
- viability, T/C [27]: 73.5%
- viability, T/C [28]: 69.8%
- viability, T/C [29]: 67%
- viability, T/C [30]: 30.5%
- viability, T/C (second compound 10 µM, first compound 0.949 µM): 6.86%
- viability, T/C (second compound 10 µM, first compound 3 µM): 1.62%

- IC50 (curve of compound): > 10000 nM
SMILES: COc1ccc([C@@H](O)c2cc(-c3ncnc4cc(N5CCOCC5)ccc34)c(F)cc2Cl)nn1
- viability, T/C (compound 0.0316 µM): 103% and 84.3%
- viability, T/C (compound 0.1 µM): 106% and 94.1%
- viability, T/C (compound 0.316 µM): 109% and 95.4%
- viability, T/C (compound 1 µM): 99.8% and 91.2%
- viability, T/C (compound 3.16 µM): 96.1% and 92.5%
- viability, T/C (compound 10 µM): 83.5% and 79.1%

Second part, the compound before the results:

SMILES: O=c1[nH]cc(F)c(=O)[nH]1
- viability, T/C (compound 0.0316 µM): 94.9% and 97.3%
- viability, T/C (compound 0.1 µM): 106% and 96%
- viability, T/C (compound 0.316 µM): 55.2% and 69.3%
- viability, T/C (compound 1 µM): 50.6% and 37.5%
- viability, T/C (compound 3.16 µM): 31.1% and 20.9%
- viability, T/C (compound 10 µM): 30.8% and 23.1%
- IC50 (curve of compound): 444 nM and 625 nM

SMILES: O=C(c1cc(Cc2n[nH]c(=O)c3ccccc23)ccc1F)N1CCN(C(=O)C2CC2)CC1 + CNC(=O)c1ccc(Nc2nc(OC3CCCC3)c3c(-c4ccc5nc(C)oc5c4)c[nH]c3n2)c(OC)c1
- IC50 [1]: > 10000 nM
- IC50 [2]: > 10000 nM
- IC50 [3]: > 10000 nM
- IC50 [4]: > 10000 nM
- IC50 [5]: > 10000 nM
- IC50 [6]: > 10000 nM
- viability, T/C (second compound 0.0316 µM, first compound 0.0316 µM): 96%
- viability, T/C (second compound 0.0316 µM, first compound 0.1 µM): 91.1%
- viability, T/C (second compound 0.0316 µM, first compound 0.316 µM): 93%
- viability, T/C (second compound 0.0316 µM, first compound 1 µM): 102%
- viability, T/C (second compound 0.0316 µM, first compound 3.16 µM): 102%
- viability, T/C (second compound 0.0316 µM, first compound 10 µM): 95.7%
- viability, T/C (second compound 0.1 µM, first compound 0.0316 µM): 76.7%
- viability, T/C (second compound 0.1 µM, first compound 0.1 µM): 84.3%
- viability, T/C (second compound 0.1 µM, first compound 0.316 µM): 71.6%
- viability, T/C (second compound 0.1 µM, first compound 1 µM): 70.1%
- viability, T/C (second compound 0.1 µM, first compound 3.16 µM): 57.8%
- viability, T/C (second compound 0.1 µM, first compound 10 µM): 55.1%
- viability, T/C (second compound 0.316 µM, first compound 0.0316 µM): 75.6%
- viability, T/C (second compound 0.316 µM, first compound 0.1 µM): 77.7%
- viability, T/C (second compound 0.316 µM, first compound 0.316 µM): 78%
- viability, T/C (second compound 0.316 µM, first compound 1 µM): 78%
- viability, T/C (second compound 0.316 µM, first compound 3.16 µM): 84.1%
- viability, T/C (second compound 0.316 µM, first compound 10 µM): 76.2%
- viability, T/C (second compound 1 µM, first compound 0.0316 µM): 67.6%
- viability, T/C (second compound 1 µM, first compound 0.1 µM): 79.6%
- viability, T/C (second compound 1 µM, first compound 0.316 µM): 65.6%
- viability, T/C (second compound 1 µM, first compound 1 µM): 71.2%
- viability, T/C (second compound 1 µM, first compound 3.16 µM): 74.4%
- viability, T/C (second compound 1 µM, first compound 10 µM): 68.4%
- viability, T/C (second compound 3.16 µM, first compound 0.0316 µM): 80%
- viability, T/C (second compound 3.16 µM, first compound 0.1 µM): 79.1%
- viability, T/C (second compound 3.16 µM, first compound 0.316 µM): 75.6%
- viability, T/C (second compound 3.16 µM, first compound 1 µM): 66.7%
- viability, T/C (second compound 3.16 µM, first compound 3.16 µM): 87.8%
- viability, T/C (second compound 3.16 µM, first compound 10 µM): 59.6%
- viability, T/C (second compound 10 µM, first compound 0.0316 µM): 71%
- viability, T/C (second compound 10 µM, first compound 0.1 µM): 85.3%
- viability, T/C (second compound 10 µM, first compound 0.316 µM): 74.8%
- viability, T/C (second compound 10 µM, first compound 1 µM): 75.2%
- viability, T/C (second compound 10 µM, first compound 3.16 µM): 65%
- viability, T/C (second compound 10 µM, first compound 10 µM): 57.1%

SMILES: C=CC(=O)Nc1cc(Nc2nccc(-c3cn(C)c4ccccc34)n2)c(OC)cc1N(C)CCN(C)C + CN1CCN(c2cc(C(=O)Nc3cc4cc(-c5cnn(C)c5)ccc4cn3)ccn2)CC1
- IC50 [1]: > 300 nM
- IC50 [2]: > 300 nM
- IC50 [3]: > 300 nM
- IC50 [4]: < 0.949 nM
- IC50 [5]: < 0.949 nM
- IC50 [6]: < 0.949 nM
- viability, T/C (second compound 0.0316 µM, first compound 0.000949 µM): 85.9%
- viability, T/C (second compound 0.0316 µM, first compound 0.003 µM): 100%
- viability, T/C [7]: 102%
- viability, T/C [8]: 104%
- viability, T/C [9]: 99.3%
- viability, T/C [10]: 91.8%
- viability, T/C (second compound 0.1 µM, first compound 0.000949 µM): 98%
- viability, T/C (second compound 0.1 µM, first compound 0.003 µM): 102%
- viability, T/C [11]: 93.7%
- viability, T/C [12]: 97.9%
- viability, T/C [13]: 94.5%
- viability, T/C [14]: 83%
- viability, T/C (second compound 0.316 µM, first compound 0.000949 µM): 90.3%
- viability, T/C (second compound 0.316 µM, first compound 0.003 µM): 92.2%
- viability, T/C [15]: 89.7%
- viability, T/C [16]: 89.4%
- viability, T/C [17]: 93.8%
- viability, T/C [18]: 76.6%
- viability, T/C (second compound 1 µM, first compound 0.000949 µM): 4.73%
- viability, T/C (second compound 1 µM, first compound 0.003 µM): 9.3%
- viability, T/C [19]: 0.69%
- viability, T/C [20]: 1.14%
- viability, T/C [21]: 0.77%
- viability, T/C [22]: 0.67%
- viability, T/C (second compound 3.16 µM, first compound 0.000949 µM): 0.69%
- viability, T/C (second compound 3.16 µM, first compound 0.003 µM): 0.65%
- viability, T/C [23]: 0.63%
- viability, T/C [24]: 0.6%
- viability, T/C [25]: 0.55%
- viability, T/C [26]: 1.62%
- viability, T/C (second compound 10 µM, first compound 0.000949 µM): 0.51%
- viability, T/C (second compound 10 µM, first compound 0.003 µM): 0.59%
- viability, T/C [27]: 0.58%
- viability, T/C [28]: 0.51%
- viability, T/C [29]: 0.4%
- viability, T/C [30]: 0.27%
